This experiment in a line: in vivo studies of allergic bronchospasm and cough.

Turning to `Clc1ccc2c(c1)CCc1cccnc1C2=C1CCNCC1` [desloratadine], the “effect on allergic bronchospasm and cough” value was “inhibitory effect”.

Values taken from patent US20050203117A1, “Treating allergic and inflammatory conditions” (priority 2002, published 2005).
